Measured values taken from the supplement of paper PMC10307832.

How the values were obtained:
Experiment in all cases: relative viability (nuclei count vs DMSO), 5 days (fraction); higher = more cells survive
[1] = compound: COc1cc2nc(N3CCCN(C)CC3)nc(NC3CCN(Cc4ccccc4)CC3)c2cc1OC + CC(C)C[C@H](NC(=O)[C@H](Cc1ccccc1)NC(=O)c1cnccn1)B(O)O [Bortezomib] (partner 0.002 µM)
Method in brief: (§1)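 Lung cancer cell lines were seeded in 1536-well plates and dosed by pin tool the next day, with either a single drug or a fixed anchor-drug dose combined with five library-drug doses (not always all listed) spaced in √10 steps. Five days later, one step fixed the cells and stained their nuclei (final 0.05% Triton X-100, 1% formaldehyde, 1 ug/ml Hoechst), and nuclei were counted on 4× images. Relative viability is the nuclei count in treated wells divided by the count in vehicle wells, and each value is the median of duplicate plates.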

[2] = compound: COc1cc2nc(N3CCCN(C)CC3)nc(NC3CCN(Cc4ccccc4)CC3)c2cc1OC + C[C@@H](Oc1cc(-c2cnn(C3CCNCC3)c2)cnc1N)c1c(Cl)ccc(F)c1Cl [Crizotinib] (partner 1 µM)
Method in brief: as §1

AZD6482 + Bortezomib = compound: Cc1cc([C@@H](C)Nc2ccccc2C(=O)O)c2nc(N3CCOCC3)cc(=O)n2c1 [AZD6482] + CC(C)C[C@H](NC(=O)[C@H](Cc1ccccc1)NC(=O)c1cnccn1)B(O)O [Bortezomib] (partner 0.002 µM)
Method in brief: as §1

AZD6482 + AZD7762 = compound: Cc1cc([C@@H](C)Nc2ccccc2C(=O)O)c2nc(N3CCOCC3)cc(=O)n2c1 [AZD6482] + NC(=O)Nc1cc(-c2cccc(F)c2)sc1C(=O)N[C@H]1CCCNC1 [AZD7762] (partner 0.2 µM)
Method in brief: as §1

Cell Line | relative viability ([1]; first compound 0.2 µM) | relative viability ([1]; first compound 0.6325 µM) | relative viability ([1]; first compound 2 µM) | relative viability ([1]; first compound 6.325 µM) | relative viability ([2]; first compound 0.2 µM) | relative viability ([2]; first compound 0.6325 µM) | relative viability ([2]; first compound 2 µM) | relative viability ([2]; first compound 6.325 µM) | relative viability (AZD6482 + Bortezomib; first compound 0.08 µM) | relative viability (AZD6482 + Bortezomib; first compound 0.253 µM) | relative viability (AZD6482 + Bortezomib; first compound 0.8 µM) | relative viability (AZD6482 + Bortezomib; first compound 2.53 µM) | relative viability (AZD6482 + Bortezomib; first compound 8 µM) | relative viability (AZD6482 + AZD7762; first compound 0.08 µM) | relative viability (AZD6482 + AZD7762; first compound 0.253 µM) | relative viability (AZD6482 + AZD7762; first compound 0.8 µM) | relative viability (AZD6482 + AZD7762; first compound 2.53 µM) | relative viability (AZD6482 + AZD7762; first compound 8 µM)
NCI-H2087 | 0.868 | 0.795 | 0.884 | 0.675 | 0.929 | 0.646 | 0.777 | 0.716 | 0.904 | 0.912 | 0.831 | 0.661 | 1.04 | 1.35 | 1.35 | 1.46 | 0.887 | 1.09
NCI-H1650 | 0.228 | 0.189 | 0.2 | 0.216 | 1 | 0.903 | 1.2 | 0.892 | 0.192 |  | 0.188 | 0.205 | 0.202 |  |  |  |  | 
NCI-H1793 |  |  |  |  |  |  |  |  |  |  |  |  |  | 0.377 | 0.361 | 0.315 | 0.218 | 0.249
COR-L 105 | 0.787 | 0.835 | 0.591 | 0.404 | 0.653 | 0.872 | 0.878 | 0.455 | 0.719 | 0.893 | 0.704 | 0.699 | 0.791 |  |  |  |  | 
NCI-H2228 | 0.91 | 0.841 | 1.47 | 0.519 | 0.529 | 0.396 | 0.479 | 0.334 | 0.754 | 0.986 | 0.91 | 0.849 | 1.13 |  |  |  |  | 
SW 900 |  |  |  |  |  |  |  |  |  |  |  |  |  | 0.402 | 0.512 | 0.445 | 0.497 | 0.501
NCI-H661 | 0.813 | 0.793 | 0.935 | 0.868 | 0.995 | 0.9 | 1.24 | 0.922 | 0.71 | 0.608 | 0.723 |  | 0.622 |  |  |  |  | 
NCI-H1563 | 0.849 | 0.921 | 0.808 | 0.778 | 0.829 | 0.853 | 0.809 | 0.794 | 0.75 | 0.828 | 0.818 | 0.673 | 0.68 |  |  |  |  | 
A549 |  |  |  |  | 0.803 | 0.638 | 0.966 | 0.736 |  |  |  |  |  |  |  |  |  | 
NCI-H2342 |  |  |  |  |  |  |  |  |  |  |  |  |  | 0.532 | 0.352 | 0.567 | 0.337 | 0.374
NCI-H2170 |  |  |  |  | 1.19 | 1.17 | 1.23 | 1.24 |  |  |  |  |  | 0.806 | 0.788 | 0.785 | 0.615 | 0.566
NCI-H522 |  |  |  |  |  |  |  |  |  |  |  |  |  | 0.764 | 0.73 | 0.803 | 0.762 | 0.664
NCI-H1395 |  |  |  |  |  |  |  |  |  |  |  |  |  | 0.393 | 0.393 | 0.44 | 0.405 | 0.411
IA-LM | 0.705 | 0.764 | 1.04 | 0.737 |  | 0.802 | 0.926 | 0.42 | 1.11 | 0.876 | 0.953 | 0.416 | 0.496 |  |  |  |  | 
NCI-H358 |  |  |  |  | 0.495 | 0.642 | 0.903 | 0.639 |  |  |  |  |  | 0.545 | 0.487 | 0.549 | 0.302 | 0.439
EBC-1 | 0.469 | 0.476 | 0.437 | 0.265 | 0.241 | 0.181 | 0.147 | 0.177 | 0.498 | 0.532 | 0.463 | 0.358 | 0.381 |  |  |  |  | 
